What was measured:
[1] = biological target: PFKFB4 (Homo sapiens (Human), UniProt Q16877); test: PFKFB4 kinase activity, Method B (ADP-Glo Kinase Assay); format: biochemical
Excerpt: (§1) The PFKFB3 (placenta form) and PFKFB4 were produced and purified to homogeneity from E. coli at Biovitrum and at Sprint Bioscience. All other reagents were purchased from commercial sources. Two independent methods have been used for determination of the kinase activity of PFKFB3 (Method A and Method B). Method B has been used for determination of the kinase activity of PFKFB4.
(§2) Method B: The kinase activity of the bi-functional enzyme is readily quantified based on the production of ADP and F-2,6-P2 from ATP and F6P. The ADP is detected with a kit, ADP-Glo™ Kinase Assay^(a-e), from Promega. The assay is a luminescent ADP detection assay that measures kinase activity by quantifying the amount of ADP produced during the kinase reaction. The assay is performed in two steps; first, after the kinase reaction, an equal volume of ADP-Glo™ Reagent is added to terminate the kinase reaction and deplete the remaining ATP. Second, the Kinase Detection Reagent is added to simultaneously convert ADP to ATP and allow the newly synthesized ATP to be measured using a luciferase/luciferine reaction. The light generated is measured using a luminescence counter (1450 MicroBeta TriLux).
(§3) The assay was performed in white 384-well microtiter plates (OptiPlate, 6007299, PerkinElmer) by consecutive additions of 0.1 μL of a test compound solution (serial diluted in DMSO from compound DMSO stock solution and dispensed by acoustic dispensing from UV-star 384-well plate 7360153, VWR), 5 μL of enzyme solution and 5 μL of a substrate (fructose-6-phosphate (F6P) and adenosine-5′-triphosphate (ATP)) containing solution. […] Four reference dose response curves, one of them being the QC compound, were included in row O1-2, P1-2, and serial diluted as the test compounds. The final concentrations of all reagents in a total assay volume of 10.1 μL per well were: • 50 mM Tris-HCl at pH 8.0 • 10 mM MgCl2 • 5 mM Na2HPO4 at pH 8.0 • 81.48 nM PFKFB3 or 145 nM PFKFB4 • 8 μM ATP • 100 μM F6P (acid treated and then neutralized to remove any contaminating F-2,6-P2; see Van Schaftingen, 1984) • 0.005% Tween-20 • 1 mM dithiothreitol (DTT) • A test compound at various concentrations or controls (final DMSO concentration 0.99%)
(§4) Enzyme, compounds and controls were pre-incubated at room temperature for 15 min before the addition of substrate solution. The enzymatic reaction was allowed to proceed for 20 min (PFKFB3) or 40 min (PFKFB4) at room temperature. The reaction was terminated by the addition of 10 μL of ADP-Glo™ Reagent to all wells and the plate was incubated for 40 min at room temperature. After addition of 20 μL Kinase Detection Reagent to all wells the plate was incubated for 30 min at room temperature, followed by measurement in 1450 MicroBeta TriLux. All plates were centrifuged after each addition (room temperature, short spin, 500 RPM, Megafuge 1.0 Heraeus Instruments).
(§5) The inhibitory potency or IC50 values of test compounds on the kinase activity of PFKFB3 or PFKFB4 were calculated using a four-parameter model (model 205) in XLfit (IDBS ActivityBase XE Runner).

[2] = biological target: PFKFB3 (Homo sapiens (Human), UniProt Q16875); test: PFKFB3 kinase activity, Method B (ADP-Glo Kinase Assay); format: biochemical
Sequence of PFKFB3 (Q16875 whole entry): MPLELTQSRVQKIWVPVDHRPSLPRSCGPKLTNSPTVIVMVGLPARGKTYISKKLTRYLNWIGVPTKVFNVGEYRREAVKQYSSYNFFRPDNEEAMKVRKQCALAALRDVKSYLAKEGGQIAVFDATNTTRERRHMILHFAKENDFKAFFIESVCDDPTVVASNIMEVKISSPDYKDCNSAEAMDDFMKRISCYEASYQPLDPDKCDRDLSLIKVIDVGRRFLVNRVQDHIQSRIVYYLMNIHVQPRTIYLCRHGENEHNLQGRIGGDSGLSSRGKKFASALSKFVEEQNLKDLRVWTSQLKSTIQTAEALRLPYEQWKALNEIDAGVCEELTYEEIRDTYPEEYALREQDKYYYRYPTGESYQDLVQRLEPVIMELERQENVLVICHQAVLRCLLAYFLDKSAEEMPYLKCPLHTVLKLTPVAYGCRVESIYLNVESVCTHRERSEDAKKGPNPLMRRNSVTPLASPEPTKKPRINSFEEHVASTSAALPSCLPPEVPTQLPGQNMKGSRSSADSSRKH
Excerpt: as §1, §2, §3, §4, §5

[3] = system: PANC-1 cells; test: Quantification of F-2,6-P2 in PANC-1 cells; format: cell-based; details: Homo sapiens, PANC-1; read-out: IC50 based on quantification of F-2,6-P2
Excerpt: The relative kinase (formation) and phosphatase (degradation) activities of the bi-functional enzymes PFKFB3 and PFKFB4 control the intracellular levels of the regulator F-2,6-P2, which acts as an allosteric activator of glycolysis. The levels of F-2,6-P2 have been determined in three different cancer cell lines (MCF-7, PANC-1 and NUGC-3) using the van Shaftingen assay. The assay protocols described under “Methods for measurement of enzymatic activity of PFKFB3 and PFKFB4, Method A” have been adapted for the measurement of the inhibitory effect of compounds on the kinase activity of the various isoforms of the bifunctional enzyme (endogenously expressed) in the different cell lines. The modifications are described in the protocol below. All reagents were purchased from commercial sources or prepared inhouse.
Cell Line B (PANC-1, Human Pancreatic Carcinoma Cell Line)
• Cells: PANC-1 (ATCC-CRL-1469). Lot. no: 58564651. • Growth medium: Dulbecco's Modified Eagle's Medium, DMEM, ATCC-30-2002 10% FBS, Invitrogen, 10106-169
Cells were seeded at a concentration of 250 000 cells/mL in 100 μL growth medium (25 000 cells/well)
Starvation medium: DMEM/F12 without phenol red and glucose free, SVA, 991373 0.25% FBS, Invitrogen, 10106-169
Induction medium: DMEM/F12 without phenol red and glucose free, SVA, 991373 0.25% FBS, Invitrogen, 10106-169 (same as starvation medium)
Cells were seeded in 96-well Corning Costar tissue culture plates (CLS3595, Sigma-Aldrich) using the concentrations specified above for the three different cell lines A-C and incubated over night at 37° C. and 5% CO2. Row A was left empty. Next day the growth medium was discarded and replaced with 100 μL starvation medium. The plates were incubated for 18 h at 37° C. and 5% CO2. After 18 h of starvation the cells were induced with 100 μL compound or control solutions. Compounds were either tested in two concentrations (50 μM and 10 μM) or in dose response curves starting from 50 μM and the final DMSO concentration in assay plates was 0.5%. Also a dose response curve of a reference inhibitor was included in row H on each plate. All compounds were tested in duplicate plates. Compounds (in 96 well CLS 3365, Sigma-Aldrich) were serial diluted in DMSO from 10 mM compound DMSO stock solutions with Janus (automated liquid handling workstation from PerkinElmer). 5 μL were transferred to a Greiner deep well plate (736-0155, VWR) with 495 μL starvation medium. The final start concentration of compounds in the dilution plate was 100 μM, 1% DMSO. For compounds tested as single points, 10 mM compound solutions were diluted five fold in DMSO to 2 mM, followed by the transfer of 5 μL to separate dilution plates with 495 μL starvation medium. The final concentration of compounds in these dilution plates were 100 or 20 μM, respectively, and final concentration of DMSO was 1%. The plates were incubated at 37° C. and 5% CO2 for 1 h, followed by the addition of 10 μL 20 mM D-glucose in starvation medium. Controls, with and without 1 mM glucose, were included in row B. The final assay volume was 210 μL per well. After 2 h of incubation at 37° C. and 5% CO2, supernatants were discarded and the cells were lysed by the addition of 25 μL 250 mM NaOH. The plates were incubated at 37° C. and 5% CO2 for 5 min followed by an addition of 75 μL MilliQ dH2O. The supernatants were further diluted with 210 μL MilliQ dH2O to a final concentration of 20 mM NaOH. 200 μL were transferred to NUNC 96-well plates (7322661, VWR) and the plates were sealed and stored at −20° C. until analysis.
The amount of F-2,6-P2 was quantified based on the coupled enzymatic reaction described by Van Schaftingen. If necessary the samples were further diluted in 20 mM NaOH before quantification. Plates stored at −20° C. were thawed and the F-2,6-P2 quantification was initiated by transferring 40 μL from each well of the NUNC plate to the corresponding position in a trans-parent 96-well SpectraPlate-MB (6005649, PerkinElmer). […]

Sequence of PFKFB4 (Q16877 whole entry): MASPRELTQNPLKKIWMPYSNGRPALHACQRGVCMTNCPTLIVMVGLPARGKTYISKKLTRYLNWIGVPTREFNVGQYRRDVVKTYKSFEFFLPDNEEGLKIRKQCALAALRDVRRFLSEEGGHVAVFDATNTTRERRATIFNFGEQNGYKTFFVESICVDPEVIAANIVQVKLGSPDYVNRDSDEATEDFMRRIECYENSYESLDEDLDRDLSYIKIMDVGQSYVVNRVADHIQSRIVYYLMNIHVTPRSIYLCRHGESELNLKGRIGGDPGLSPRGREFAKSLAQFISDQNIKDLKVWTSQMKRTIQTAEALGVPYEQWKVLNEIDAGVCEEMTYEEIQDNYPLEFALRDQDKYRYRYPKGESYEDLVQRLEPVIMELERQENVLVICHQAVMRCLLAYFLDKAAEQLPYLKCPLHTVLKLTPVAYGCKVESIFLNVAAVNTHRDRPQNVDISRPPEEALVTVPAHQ

| IC50 [1] | IC50 [2] | IC50 [3] | SMILES |
| --- | --- | --- | --- |
| 3720 nM |  |  | COc1ccc(-c2ccc(S(=O)(=O)Nc3cccc(-c4nnn[nH]4)c3)cc2)cc1 [Example 85, 4′-Methoxy-N-[3-(1H-tetrazol-5-yl)phenyl]biphenyl-4-sulfonamide] |
|  | 280 nM |  | Cc1c(S(=O)(=O)Nc2cccc(-c3nnn[nH]3)c2)sc2ccccc12 [Example 39, 3-Methyl-N-[3-(1H-tetrazol-5-yl)phenyl]-1-benzothiophene-2-sulfonamide] |
|  | 5180 nM |  | O=C(O)c1cccc(NS(=O)(=O)c2cc(-c3ccccc3O)c(Cl)s2)c1O [Example 137, 3-({[5-Chloro-4-(2-hydroxyphenyl)thiophen-2-yl]sulfonyl}amino)-2-hydroxybenzoic acid] |
|  | 130 nM |  | Cc1ccc2sc(S(=O)(=O)Nc3cccc(-c4nnn[nH]4)c3)c(C)c2c1 [Example 33, 3,5-Dimethyl-N-[3-(1H-tetrazol-5-yl)phenyl]-1-benzothiophene-2-sulfonamide] |
| 660 nM |  | 11000 nM | COc1ccccc1-c1ccc(S(=O)(=O)Nc2cccc(-c3nnn[nH]3)c2)s1 [Example 24, 5-(2-Methoxyphenyl)-N-[3-(1H-tetrazol-5-yl)phenyl]thiophene-2-sulfonamide] |
| 100 nM |  |  | Cc1c(S(=O)(=O)Nc2ncc(C(=O)O)s2)sc2ccc(C(C)C)cc12 [Example 7, 2-{[(5-Isopropyl-3-methyl-1-benzothien-2-yl)sulfonyl]amino}-1,3-thiazole-5-carboxylic acid] |
| 750 nM |  |  | O=S(=O)(Nc1cccc(-c2nnn[nH]2)c1)c1ccc(-c2ccccc2Cl)s1 [Example 26, 5-(2-Chlorophenyl)-N-[3-(1H-tetrazol-5-yl)phenyl]thiophene-2-sulfonamide] |
| 170 nM |  |  | Cc1c(S(=O)(=O)Nc2cccc(-c3nnn[nH]3)c2)sc2ccc(F)cc12 [Example 43, 5-Fluoro-3-methyl-N-[3-(1H-tetrazol-5-yl)phenyl]-1-benzothiophene-2-sulfonamide] |
| 200 nM |  |  | Cc1c(S(=O)(=O)Nc2cccc(C(=O)O)c2)sc2c(Cl)cccc12 [Example 44, 3-{[(7-Chloro-3-methyl-1-benzothien-2-yl)sulfonyl]amino}benzoic acid] |
| 660 nM |  |  | O=S(=O)(Nc1cccc(-c2nnn[nH]2)c1)c1ccc(-c2ccc(F)c(Cl)c2)s1 [Example 102, 5-(3-Chloro-4-fluorophenyl)-N-[3-(1H-tetrazol-5-yl)phenyl]thiophene-2-sulfonamide] |
| 140 nM |  |  | Cc1ccc2sc(S(=O)(=O)Nc3cccc(-c4nnn[nH]4)c3)cc2c1 [Example 40, 5-Methyl-N-[3-(1H-tetrazol-5-yl)phenyl]-1-benzothiophene-2-sulfonamide] |
| 600 nM |  |  | O=S(=O)(Nc1cccc(-c2nnn[nH]2)c1)c1ccc(-c2ccc(F)cc2F)s1 [Example 101, 5-(2,4-Difluorophenyl)-N-[3-(1H-tetrazol-5-yl)phenyl]thiophene-2-sulfonamide] |
|  | 620 nM |  | O=S(=O)(Nc1cccc(-c2nnn[nH]2)c1)c1ccc(-c2cc(F)cc(F)c2)s1 [Example 23, 5-(3,5-Difluorophenyl)-N-[3-(1H-tetrazol-5-yl)phenyl]thiophene-2-sulfonamide] |
| 480 nM |  | 13800 nM | Cc1ccc(-c2ccc(S(=O)(=O)Nc3cccc(-c4nnn[nH]4)c3)s2)cc1 [Example 27, 5-(4-Methylphenyl)-N-[3-(1H-tetrazol-5-yl)phenyl]thiophene-2-sulfonamide] |
|  | 1300 nM |  | O=S(=O)(Nc1cccc(-c2nnn[nH]2)c1)c1ccc(-c2ccccc2)s1 [Example 60, 5-Phenyl-N-[3-(1H-tetrazol-5-yl)phenyl]thiophene-2-sulfonamide] |
| 420 nM |  |  | COc1cccc2c(C)c(S(=O)(=O)Nc3cccc(C(=O)O)c3)sc12 [Example 42, 3-{[(7-Methoxy-3-methyl-1-benzothien-2-yl)sulfonyl]amino}benzoic acid] |
| 1830 nM |  |  | O=S(=O)(Nc1cccc(-c2nnn[nH]2)c1)c1ccc(Br)cc1F [Example 57, 4-Bromo-2-fluoro-N-[3-(1H-tetrazol-5-yl)phenyl]benzenesulfonamide] |
| 510 nM |  |  | O=S(=O)(Nc1cccc(-c2nnn[nH]2)c1)c1c(Cl)cc(C(F)(F)F)cc1Cl [Example 18, 2,6-Dichloro-N-[3-(1H-tetrazol-5-yl)phenyl]-4-(trifluoromethyl)benzenesulfonamide] |
| 390 nM |  |  | O=S(=O)(Nc1cccc(-c2nnn[nH]2)c1)c1cccc(-c2ccccc2)c1 [Example 16, N-[3-(1H-Tetrazol-5-yl)phenyl]biphenyl-3-sulfonamide] |
| 180 nM |  |  | Cc1c(S(=O)(=O)Nc2cccc(C(=O)O)c2O)sc2ccc(Cl)cc12 [Example 134, 3-{[(5-Chloro-3-methyl-1-benzothiophen-2-yl)sulfonyl]amino}-2-hydroxybenzoic acid] |
| 420 nM |  |  | CSc1nccc(-c2ccc(S(=O)(=O)Nc3cccc(-c4nnn[nH]4)c3)s2)n1 [Example 21, 5-[2-(Methylthio)pyrimidin-4-yl]-N-[3-(1H-tetrazol-5-yl)phenyl]thiophene-2-sulfonamide] |

Reference: patent US9233946B2, “Sulfonamide compounds” (KANCERA AB, priority 2010, dated 2016)
